SMILES strings stand for the structures.

In one series the test system is Rhizoctonia solani. The experiment in a line: Contact evaluation (microtiter plate). Format: cell-based. Set-up: key: Full: fungal inhibition was rated as full, partial, or none; Partial: fungal inhibition was rated as full, partial, or none; None: fungal inhibition was rated as full, partial, or none. The conditions noted are these: Rhizoctinia solani. On the procedure:
(§1) Compound solution: Contact evaluations were conducted to determine the anti-fungal activity of each compound against Botrytis cinerea, Sclerotinia sclerotiorum, Pythium aphanidermatum, Rhizoctonia solani, Cercospora arachidicola, Mycosphaerella fijiensis, and Monilinia laxa. Five milligrams of each compound were dissolved in 0.5 milliliter of DMSO for a compound stock solution of 1.0% w/v. Compound stock solutions were serial diluted with DMSO to 20, 10, and 2 ppm final well concentration. Fungi preparation: Botrytis cinerea spores were taken from 6-week-old cultures grown at 22C on full strength potato dextrous agar (PDA) plates. Sclerotinia sclerotiorum, Pythium aphanidermatum, Rhizoctonia solani, and Monilinia laxa mycelia were taken from 4- to 10-day-old shake flask cultures grown at room temperature on full strength potato dextrous broth (PDB). Cercospora arachidicola mycelia were taken from 10- to 14-day-old shake flask cultures grown at room temperature on a full strength PDB amended with peanut oil. Mycosphaerella fijiensis mycelia were taken from 10- to 14-day-old shake flask cultures grown at room temperature on V8 juice broth. Sclerotinia sclerotiorum, Pythium aphanidermatum, Rhizoctonia solani, Cercospora arachidicola, and Mycosphaerella fijiensis mycelia (0.4 g mycelia) were blended for 45 seconds in 20 mL sterile de-ionized water. Monilinia laxa mycelia (1 g mycelia) was blended for 45 seconds in 30 mL of sterile de-ionized water. Botrytis cinerea spores were diluted with quarter strength PDB to 1×10^5 spores/mL final well concentration. All mycelia were diluted in water (1:5 mycelia:water) before distributing into the wells. Microtiter plate preparation: Compound solution (10:L), quarter strength PDB (900:L) and fungi preparation (100:L) were sequentially distributed into 48-well microtiter plates (n=3 replications/compound/rate). A blank consisted of quarter strength PDB and fungi preparation. Commercial fungicide controls (100 ppm diluted with water) consisted of Scala for Botrytis cinerea, Dithane F-45 for Mycosphaerella fijiensis, and Benlate for Sclerotinia sclerotiorum, Pythium aphanidermatum, Rhizoctonia solani, Cercospora arachidicola, and Monilinia laxa. Plates were shaken in a circular rotator at room temperature for 20 minutes, then incubated at 25C for 24 to 72 hours, depending on the pathogen. Fungal control ratings: Fungal growth in wells containing the compounds were compared to the positive control and fungal inhibition was rated as full, partial, or none. Final readings were the average of the three wells (Table 1).

The next series concerns Sclerotinia sclerotiorum. Put plainly: Contact evaluation (microtiter plate). It is filed as cell-based. Conditions: Sclerotinia sclerotionum. Set-up: key: Full: fungal inhibition was rated as full, partial, or none; Partial: fungal inhibition was rated as full, partial, or none; None: fungal inhibition was rated as full, partial, or none. How it is done:
as §1

The test system of the next series is Mycosphaerella fijiensis. The experiment in a line: Contact evaluation (microtiter plate). It is filed as cell-based. Also noted: key: Full: fungal inhibition was rated as full, partial, or none; Partial: fungal inhibition was rated as full, partial, or none; None: fungal inhibition was rated as full, partial, or none. On the procedure: as §1
The test system of a further series is Cercospora arachidicola. The experiment in a line: Contact evaluation (microtiter plate). Format: cell-based. Also noted: key: Full: fungal inhibition was rated as full, partial, or none; Partial: fungal inhibition was rated as full, partial, or none; None: fungal inhibition was rated as full, partial, or none. How it is done: as §1
For a further series, the system named is Monilinia laxa. Put plainly: Contact evaluation (microtiter plate). It is filed as cell-based. Also noted: key: Full: fungal inhibition was rated as full, partial, or none; Partial: fungal inhibition was rated as full, partial, or none; None: fungal inhibition was rated as full, partial, or none. How it is done: as §1
In a further series the test system is Pythium aphanidermatum. The experiment in a line: Contact evaluation (microtiter plate). Format: cell-based. Also noted: key: Full: fungal inhibition was rated as full, partial, or none; Partial: fungal inhibition was rated as full, partial, or none; None: fungal inhibition was rated as full, partial, or none. On the procedure: as §1
The test system of series [1] is Botrytis cinerea. The experiment in a line: Contact evaluation (microtiter plate). Format: cell-based. Also noted: key: Full: fungal inhibition was rated as full, partial, or none; Partial: fungal inhibition was rated as full, partial, or none; None: fungal inhibition was rated as full, partial, or none. On the procedure:
as §1

For series [2], the system named is Botrytis cinerea. Put plainly: Detached bean leaf bioassay, fungal control. The conditions noted are these: detached bean leaf (Phaseolus vulgaris), three days after inoculation, 100 minus percent necrotic area. It is filed as in vivo. How it is done: Compound solution: Compound solutions were prepared by diluting compound stock solutions (1.0% w/v compound in DMSO) to 200 ppm with 0.01% w/v Triton X-100.
Spore solution preparation: Botrytis cinerea spores were taken from 6-week-old cultures grown at 22C on full strength potato dextrous agar (PDA) plates and harvested in 1:16 frozen orange juice concentrate:water. Botrytis cinerea spore solutions were prepared by diluting spore cultures to 5×10^4 spores/mL with 1:16 frozen orange juice concentrate:water.
Plant material: Middle trifoliate leaves of greenhouse grown Phaseolus vulgaris (Bush bean cv. Blue Lake 274) were excised and placed on a plastic grid above a tray containing moist towels.
Treatment method: One half of the adaxial surface of the leaf was treated with the compound solution (100:L) using a 3 cm Bacti Cell Spreader. A blank consisted of 0.01% w/v Triton X-100. A commercial fungicide control (200 ppm diluted with water) consisted of Scala. […]
Fungal control rating: Three days after inoculation with Botrytis, the percent necrotic area under the inoculation droplet was determined. Since the areas under the blank (0.01% w/v Triton X-100) were 100% infected, fungal control was expressed as 100 minus the percent necrotic area, and thus 0% infected is 100% fungal control (n=3 leaves/compound, 5 inoculation droplets/leaf, Table 2).

For series [3], the system named is Phaseolus vulgaris (Bush bean cv. Blue Lake 274). Put plainly: Detached bean leaf bioassay, phytotoxicity rating. It is filed as in vivo. How it is done: Compound solution: Compound solutions were prepared by diluting compound stock solutions (1.0% w/v compound in DMSO) to 200 ppm with 0.01% w/v Triton X-100. Plant material: Middle trifoliate leaves of greenhouse grown Phaseolus vulgaris (Bush bean cv. Blue Lake 274) were excised and placed on a plastic grid above a tray containing moist towels. Treatment method: One half of the adaxial surface of the leaf was treated with the compound solution (100:L) using a 3 cm Bacti Cell Spreader. A blank consisted of 0.01% w/v Triton X-100. A commercial fungicide control (200 ppm diluted with water) consisted of Scala. After the solutions dried, the trays containing the leaves were covered and held one day in a growth chamber (22C). The adaxial surfaces of the leaves were then inoculated with 5–60:L droplets of Botrytis cinerea spore solution. Phytotoxicity ratings: Phytotoxicity was rated as 0=no phytotoxicity, 1=slight phytotoxicity, 2=moderate phytotoxicity, or 3=excessive phytotoxicity (Table 2).

Regarding `C/C1=C\C=C\CCC(C)CNC(=O)/C=C/C=C/C(C)C(O)C/C=C(\C)C1` (centres unmarked) [formula I], the “Control of fungi (full, partial, none)” value in the series on Rhizoctonia solani (fungicide rate 2 ppm), in the series with Rhizoctonia solani (fungicide rate 10 ppm), in the series on Rhizoctonia solani (fungicide rate 20 ppm), in the series on Sclerotinia sclerotiorum (fungicide rate 2 ppm), in the series with Sclerotinia sclerotiorum (fungicide rate 10 ppm) and in the series on Sclerotinia sclerotiorum (fungicide rate 20 ppm) was “Full” each time. Further, the “Control of fungi (full, partial, none)” value with Mycosphaerella fijiensis (fungicide rate 2 ppm), in the series with Mycosphaerella fijiensis (fungicide rate 10 ppm), in the series on Mycosphaerella fijiensis (fungicide rate 20 ppm), in the series on Cercospora arachidicola (fungicide rate 2 ppm), with Cercospora arachidicola (fungicide rate 10 ppm) and in the series with Cercospora arachidicola (fungicide rate 20 ppm) was “Full” in each case. The “Control of fungi (full, partial, none)” value in the series on Monilinia laxa (fungicide rate 2 ppm), with Monilinia laxa (fungicide rate 10 ppm), in the series on Monilinia laxa (fungicide rate 20 ppm), in the series on Pythium aphanidermatum (fungicide rate 2 ppm), with Pythium aphanidermatum (fungicide rate 10 ppm) and in the series with Pythium aphanidermatum (fungicide rate 20 ppm) was “Full” in each case. In addition, the “Control of fungi (full, partial, none)” value in the series on Botrytis cinerea [1] (fungicide rate 2 ppm), in the series on Botrytis cinerea [1] (fungicide rate 10 ppm) and in the series with Botrytis cinerea [1] (fungicide rate 20 ppm) was “Full” each time. For the same compound, in the series with Botrytis cinerea [2], the “Botrytis cinerea control (200 ppm)” value was 31%. Moreover, the “Phytotoxity (200 ppm)” value in series [3] is reported as “None”.

(Values after patent publication US7276493B2, “Fungicide for treating plants” (Valent BioSciences Corporation, priority 2003, dated 2007).)
